Test results as given in PMC12530850, “Synthesis, antidiabetic evaluation, and computational modeling of 3-acetyl-8-ethoxy coumarin derived hydrazones and thiosemicarbazones” (RSC Advances, 2025).
Where “and” joins values, the source holds several entries; their conditions need not be identical. Equal entries are not always repeated.

Tests used:
α-amylase = α-amylase inhibition assay (starch substrate); type: biochemical; settings: pH 6.9, 35 °C
Procedure: A 0.4 M starch combination was made in 80 mL of NaOH solution and heated to 80 °C for 30 minutes in order to create the starch. After that, 10 μL of various chemical concentrations were combined with 35 μL of starch solution and 35 μL of phosphate buffer (pH 6.9), and the mixture was incubated for 25 minutes at 35 °C. Finally, the final combination was reincubated for 25 minutes after 20 μL of the α-amylase solution was added. Each tube was filled with 50 μL of HCl (0.1 M) to complete the reactions. At 580 nm, the absorbance was measured. The amount of αamylase needed to release one μmol of reducing sugar, which is estimated to be glucose per minute at pH 6.9 and 40 °C, is known as one α-amylase unit.[52,53]

[1] = Antioxidant assay (metal chelating, Fe^2+ binding at 522 nm); settings: Fe^2+ chelating
Procedure: Fe^2+ chelating ability of novel compounds was predicted according to Dinis et al.[54] with slight modification. Fe^2+-binding capacity of novel compounds was spectrophotometrically recorded at 522 nm. This study was conducted based on previous papers.[55,56]
In this section, we studied the metal chelating method, one of the antioxidant methods for toxicity. To stop the metal ions from serving as catalysts of lipid oxidation, metal-chelating antioxidants are thus added to food products. […] In this study, EDTA was used as a standard.

Row | Compound | IC50 (α-amylase) | Metal chelating (IC50) [1]
1 | CCOc1cccc2cc(/C(C)=N/NC(=O)c3cccs3)c(=O)oc12 [Compound 3a, (E)-N′-[1-(8-Ethoxy-2-oxo-2H-chromen-3-yl)ethylidene]thiophene-2-carbohydrazide] | 430 ± 7.6 nM | >100 µg/mL
2 | CCOc1cccc2cc(/C(C)=N/NC(=O)c3ccc(F)cc3)c(=O)oc12 [Compound 3b, (E)-N′-[1-(8-Ethoxy-2-oxo-2H-chromen-3-yl)ethylidene]-4-fluorobenzohydrazide] | 252 nM and 159 nM | >100 µg/mL
3 | CCOc1cccc2cc(/C(C)=N/NC(=O)c3ccc(Br)cc3)c(=O)oc12 [Compound 3c, (E)-4-Bromo-N′-[1-(8-ethoxy-2-oxo-2H-chromen-3-yl)ethylidene]benzohydrazide] | 209 ± 12.4 nM | >100 µg/mL
4 | CCOc1cccc2cc(/C(C)=N/NC(=O)c3ccccc3OC)c(=O)oc12 [Compound 3d, (E)-N′-[1-(8-Ethoxy-2-oxo-2H-chromen-3-yl)ethylidene]-2-methoxybenzohydrazide] | 177 ± 8.25 nM | >100 µg/mL
5 | CCOc1cccc2cc(/C(C)=N/NC(=O)c3cnccn3)c(=O)oc12 [Compound 3e, (E)-N′-[1-(8-Ethoxy-2-oxo-2H-chromen-3-yl)ethylidene]pyrazine-2-carbohydrazide] | 479 ± 8.7 nM | >100 µg/mL
6 | CCOc1cccc2cc(/C(C)=N/NC(=O)c3c[nH]c4ccccc34)c(=O)oc12 [Compound 3f, (E)-N′-[1-(8-Ethoxy-2-oxo-2H-chromen-3-yl)ethylidene]-1H-indole-3-carbohydrazide] | 425 ± 11.1 nM | >100 µg/mL
7 | CCOc1cccc2cc(/C(C)=N/NC(=O)c3ccco3)c(=O)oc12 [Compound 3g, (E)-N′-[1-(8-Ethoxy-2-oxo-2H-chromen-3-yl)ethylidene]furan-2-carbohydrazide] | 189 ± 9.65 nM | >100 µg/mL
8 | COc1cccc2cc(/C(C)=N/NC(=S)NCc3ccccc3)c(=O)oc12 [Compound 5a, (E)-N-Benzyl-2-[1-(8-methoxy-2-oxo-2H-chromen-3-yl)ethylidene]hydrazine-1-carbothioamide] | 264.5 ± 2.64 nM | >100 µg/mL
9 | COc1cccc2cc(/C(C)=N/NC(=S)Nc3ccc(C)cc3C)c(=O)oc12 [Compound 5b, (E)-N-(2,4-Dimethylphenyl)-2-[1-(8-methoxy-2-oxo-2H-chromen-3-yl)ethylidene] hydrazine-1-carbothioamide] | 198 ± 6.04 nM | 58.06 ± 0.08 µg/mL
10 | COc1cccc2cc(/C(C)=N/NC(=S)NCc3ccc(C)cc3)c(=O)oc12 [Compound 5c, (E)-2-[1-(8-Methoxy-2-oxo-2H-chromen-3-yl)ethylidene]-N-(4-methylbenzyl) hydrazine-1-carbothioamide] | 128 ± 2.82 nM | 43.55 ± 0.10 µg/mL
11 | COc1cccc2cc(/C(C)=N/NC(=S)NCC(C)C)c(=O)oc12 [Compound 5d, (E)-N-Isobutyl-2-[1-(8-methoxy-2-oxo-2H-chromen-3-yl)ethylidene]hydrazine-1-carbothioamide] | 237 ± 3.43 nM | 50.38 ± 0.04 µg/mL
12 | COc1cccc2cc(/C(C)=N/NC(N)=S)c(=O)oc12 [Compound 5e, (E)-2-[1-(8-Methoxy-2-oxo-2H-chromen-3-yl)ethylidene]hydrazine-1-carbothioamide] | 146 ± 7.35 nM | 35.96 ± 0.52 µg/mL
13 | O=C(O)CN(CCN(CC(=O)O)CC(=O)O)CC(=O)O [EDTA, Ethylenediaminetetraacetic acid, reference compound] |  | 66.82 ± 0.40 µg/mL
